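In this assay, cells in 96-well plates receive the compound at five concentrations for 48 hours. Endpoints are linearly interpolated between the surrounding concentrations. GI50: concentration for 50% inhibition of growth. At the TGI there is no net growth.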
Key:
Test in all cases: DTP human tumour cell line panel, 48 h
CCRF-CEM leukemia = test system: CCRF-CEM leukemia
HCT-15 colon = test system: HCT-15 colon
HL-60(TB) leukemia = test system: HL-60(TB) leukemia
HOP-62 NSCLC = test system: HOP-62 NSCLC
HOP-92 NSCLC = test system: HOP-92 NSCLC
K-562 leukemia = test system: K-562 leukemia
OVCAR-5 ovarian = test system: OVCAR-5 ovarian
OVCAR-8 ovarian = test system: OVCAR-8 ovarian
SF-295 CNS = test system: SF-295 CNS
SW-620 colon = test system: SW-620 colon

For `C=C1CCC2(C#N)[C@H]3[C@H](CC[C@@H]2C)[C@@H](C)C[C@@H](CC(C)(C)NC(=O)CN2CCC2=O)[C@H]13` (stereo not given in full), the GI50 (CCRF-CEM leukemia) was 12.8 µM, the TGI (CCRF-CEM leukemia) was 80.3 µM and the GI50 (HCT-15 colon) was 3.68 µM. It also gave a TGI (HCT-15 colon) of 26.8 µM, a GI50 (HL-60(TB) leukemia) of 5.05 µM and a TGI (HL-60(TB) leukemia) of 37 µM. For the same compound, the GI50 (HOP-62 NSCLC) was 12.3 µM, the TGI (HOP-62 NSCLC) was 29 µM and the GI50 (HOP-92 NSCLC) was 3.12 µM. The TGI (HOP-92 NSCLC) was 27.5 µM, the GI50 (K-562 leukemia) was 3.69 µM and the TGI (K-562 leukemia) was 53.1 µM. For the same compound, the GI50 (OVCAR-5 ovarian) was 10.7 µM, the TGI (OVCAR-5 ovarian) was 22.5 µM and the GI50 (OVCAR-8 ovarian) was 4.94 µM. For the same compound, the TGI (OVCAR-8 ovarian) was 38.1 µM, the GI50 (SF-295 CNS) was 3.27 µM and the TGI (SF-295 CNS) was 13.4 µM. The GI50 (SW-620 colon) was 11.3 µM and the TGI (SW-620 colon) was 32.3 µM.

Reference: PubChem BioAssay (NCI)
